Consider four compounds from patent US7172879B2, “Detection of sphingosine kinase activity and sphingosine kinase agonist or antagonist activity” (Johnson & Johnson Pharmaceutical Research & Development LLP, priority 1997, dated 2007).

Assay type in all cases: cell-based, human
Data set [1] has as its system VCAM-1. The data set is described as follows: Cell-surface expression of VCAM-1 by HUVECs, flow cytometry. As to the method:
(§1) Confluent monolayers of HUVECs were preincubated with or without HDL that was isolated as the fraction of density 1.13˜1.21 g/ml from human plasma at a concentration of 1 mg/ml of apoA-1. After 16-h preincubation, the cells were treated with TNFα (100 U/ml). Following 4-h treatment of TNFα, the cell-surface expression of VCAM-1 and E-selectin was measured by using flow cytometry.
(§2) HUVECs were treated with an increasing concentration of C2-ceramide with or without TNF α(100 U/ml), or an increasing concentration of Sph-1-P for 4 h. The cell-surface expression of VCAM-1 or E-selectin was measured by flow cytometry. Effect of sphingosine kinase inhibitor (DMS) on the expression of VCAM-1 and E-selectin. The cells were treated with a vehicle (Nil), DMS (5 μM), Sph-1-P (5 μM), C2-ceramide (10 μM) or TNFα (100 U/ml) for 4 h, then measure VCAM-1 or E-selectin expression. Effect of agents on E-selectin mRNA levels and the comparison between the effect of HDL and DMS. After the indicated treatment for 4 h, E-selectin mRNA levels were measured by Northern blotting assay. Results shown in (D) are representative of three similar experiments.
For orientation: A flow cytometer gives signals particle by particle.

Data set [2] has as its system Sph-1-P formation. The data set is described as follows: Sph-1-P formation in permeabilized HUVECs. The conditions noted are these: endothelial cells; same concentration of DMS (5 μM). How it is done:
(§3) HUVECs were labelled with [^3H]sphingomyelin was measured at the desired time point of TNFα treatment. The unlabelled cells were treated with HDL and/or TNFα as indicated, cells were lysed to measure ceramide levels and sphingosine kinase activity, respectively. The cells were permeabilized to measure the production of Sph-1-P in vivo.
(§4) To measure sphingomyelin, the HUVECs were labeled with [^3H]serine (5 μCi/ml) for 48 h and preincubated with or without HDL for another 6 h. The cells were then washed three times and incubated for additional 2 h in the presence or absence of HDL. […] Sphingomyelin spots were visualized by fluorography, quantitated by scintillation spectrometry, and normalized by radioactivity recovered in total cellular lipids. […] To measure ceramide levels, cellular ceramide was extracted and quantified with the diacylglycerol kinase reaction (Kolesnick, 1991; Hannun & Bell, 1993). Sphingosine kinase activity was measured in vitro as previously described with some modification (Mattie et al., 1994; Ghosh et al., 1994; Choi et al., 1996). […] Sphingosine kinase activity was measured by incubating the supernatant with […] sphingosine-BSA complex and [γ^32P]ATP (1 mM, 5 μCi/ml) for 15 min at 37° C. […] Radioactivity of the spot corresponding to Sph-1-P was quantified using Phosphoimager system. […]

The subject of data set [3] is E-selectin. The data set is described as follows: Cell-surface expression of E-selectin by HUVECs, flow cytometry. As to the method: as §1, §2
Data set [4] concerns NF-κB. The data set is described as follows: NF-κB binding activity in HUVEC nuclear extracts, electrophoretic mobility shift assay. The note with it: HUVECs, 30 min treatment. As to the method: After the cells were treated with an agent for 30 min, ERK activities were assayed with mycline basic protein (MBP) as substrate after immunoprecipitation with antibodies against p42/p44^MAPK (Berra et al. 1995; Li et al., 1996; Lee et al., 1997). The kinase reaction products were separated on 10% SDS-polyacrylamide gels. Bar graph depicting ERK activities were quantified by Phosphoimager. NF-κB binding activity was measured by electrophoretic mobility shift assay after 30 min treatment as indicated. The specific NF-κB binding complexes were identified by the super-shift gel assay with anti-p50 and anti-p65 antibodies and by competition analyses with the addition of a 50-fold molar excess of unlabelled NF-κB oligonucleotides.
To measure the NF-κB binding activity, electrophoretic mobility-shift assays were performed. Nuclear extracts were prepared from HUVECs treated for 30 min with vehicle or the indicated agents. The double-stranded oligonucleotides used as a probe in these experiements included 5′-[…]-3′ (SEQ ID NO: 1) which contains a consensus NF-κB binding site in E-selection promoter that is underlined. Gel mobility shift of a consensus NF-κB oligonucleotide was performed by incubating ^32P-labelled NF-κB probe with […] of nuclear proteins. The Sph-1-P induced formation of NF-κB specific complexes were similar us that induced by TNFα. […]

For data set [5], the system named is sphingosine kinase. Put plainly: Sphingosine kinase activity in cytosolic fractions of treated HUVECs. How it is done:
as §3, §4

The subject of data set [6] is ERK. The data set is described as follows: ERK activity in HUVECs, immunoprecipitation and MBP substrate. The conditions noted are these: for stimulation of ERK activities: 30 min treatment. How it is done:
After the cells were treated with an agent for 30 min, ERK activities were assayed with […] basic protein (MBP) as substrate after immunoprecipitation with antibodies against p42/p44^MAPK (Berra et al. 1995; Li et al., 1996; Lee et al., 1997). The kinase reaction products were separated on 10% SDS-polyacrylamide gels. Bar graph depicting ERK activities were quantified by Phosphoimager. NF-κB binding activity was measured by electrophoretic mobility shift assay after 30 min treatment as indicated.

Data set [7] has as its system sphingomyelin. Put plainly: Sphingomyelin hydrolysis in labelled HUVECs. The conditions noted are these: within 30 min of TNFα stimulation. As to the method: as §3, §4
Data set [8] has as its system ceramide. Put plainly: Cellular ceramide levels in HUVECs, diacylglycerol kinase reaction. The conditions noted are these: peak at 30 min after TNFα treatment. How it is done:
as §3, §4

The subject of data set [9] is E-selectin mRNA. Put plainly: E-selectin mRNA levels in HUVECs, Northern blotting. The note with it: 4 h treatment. How it is done:
as §2
Total RNA was prepared from HUVECs that was treated with the indicated agents for 4 h. Equal aliquots of total RNA (12 μg) were electrophoresed in a 1% formaldehyde gel and transferred to nylon membrane. The blots were hybridized with α^=P-labeled E-selection cDNA probe. The mRNA levels of E-selectin were quantified by Phosphoimager and normalised to radiolabeled GAPDH probe.

Where [10] appears, read: at 51 μM, compared with 100 U/ml TNF-α.
[11] abbreviates: HUVECs, TNFα 100 U/ml, 4 h, flow cytometry.

Bounds are passed on as bounds.

For N,N-dimethylsphingosine [DMS], the “effect on Sph-1-P induced adhesion protein expression (VCAM-1)” value in [1] (HUVECs, Sph-1-P 5 μM, 4 h) was “did not prevent”. Besides, the “inhibition of Sph-1-P formation induced either by TNF-α or PMA” value in [2] is recorded as above 90%. Moreover, in [3] (HUVECs, Sph-1-P 5 μM, 4 h), the “effect on Sph-1-P induced adhesion protein expression (E-selectin)” value is “did not prevent”. The “inhibition of Sph-1-P induced activation of NF-κB” value in data set [4] is recorded as “did not inhibit”. In addition, the “inhibition of sphingosine kinase activity induced either by TNF-α or PMA” value in data set [5] (endothelial cells, same concentration of DMS (5 μM)) is given as above 90%. In data set [6] (30 min, p<0.02), the “inhibition of TNFα-activated ERK” value is recorded as 50%.

In the case of TNFα, the “cellular sphingomyelin content, % of control” value in [7] amounted to 40%. Further, in [5] (HUVECs, within 5 min, p<0.01), the “cytosolic sphingosine kinase activity, maximum, % of basal” value worked out at 165±13%. The “stimulation of ERK activities” value in data set [6] is reported as “approximately equipotent”. In addition, in data set [8], the “increase of cellular ceramide levels” value is given as “approximately 2 fold”.

For `CCCCCCCCCCCCC/C=C/[C@@H](O)[C@@H](N)COP(=O)(O)O` [Sph-1-P, sphingosine-1-phosphate], the “induction of E-selectin mRNA” value in data set [9] was “induction of E-selectin mRNA”. Also, the “induction of VCAM-1, level reached” value in data set [1] (setting [10]) was “approximately equivalent to 100 U/ml TNF-α”. Moreover, the “induction of E-selectin, level reached” value in data set [3] (setting [10]) was “approximately equivalent to 100 U/ml TNF-α”. Moreover, in [4], the “induction of nuclear NF-κB accumulation” value is reported as “significant nuclear NF-κB accumulation”. The “stimulation of ERK activities” value in [6] is listed as “approximately equipotent”.

Turning to `CCCCCCCCCCCCC/C=C/[C@@H](O)[C@H](CO)NC(C)=O` [C2-ceramide], the “inhibition of TNFα-induced expression of VCAM-1” value in data set [1] (setting [11]) is given as above 60%. Further, the “inhibition of TNFα-induced expression of E-selectin” value in [3] (setting [11]) is listed as above 60%. In data set [6], the “stimulation of ERK activities” value is recorded as “did not”.
